Target: T1, human acetyl-CoA carboxylase 2 (ACC2) (Homo sapiens, UniProt O00763)
T1 construct: The cDNA encoding amino acids 144 to 2458 of human acetyl-CoA carboxylase 2; made in house; host or cells: Sf9 insect cells (baculovirus, pFastBac1)
Experiment: Acetyl-CoA carboxylase enzyme assay (malonyl-CoA formation by LC/MS/MS)
Type: biochemical
Conditions: recombinant human ACC2 (aa 144-2458); read-out: IC50 ACC2
Procedure, shortened: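 Malonyl-CoA formation was read by LC/MS/MS MRM against a [13C3]-malonyl-CoA internal standard, after acetic acid quench. The enzyme was baculovirus/Sf9-expressed human ACC2 residues 144–2458, given 15 minutes room-temperature compound preincubation in HEPES pH 7.5 buffer with MgCl2, citrate and DTT. Substrate solution held 50 μM acetyl-CoA, 120 μM ATP and 2 mM KHCO3.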

T1 sequence (O00763 144-2458): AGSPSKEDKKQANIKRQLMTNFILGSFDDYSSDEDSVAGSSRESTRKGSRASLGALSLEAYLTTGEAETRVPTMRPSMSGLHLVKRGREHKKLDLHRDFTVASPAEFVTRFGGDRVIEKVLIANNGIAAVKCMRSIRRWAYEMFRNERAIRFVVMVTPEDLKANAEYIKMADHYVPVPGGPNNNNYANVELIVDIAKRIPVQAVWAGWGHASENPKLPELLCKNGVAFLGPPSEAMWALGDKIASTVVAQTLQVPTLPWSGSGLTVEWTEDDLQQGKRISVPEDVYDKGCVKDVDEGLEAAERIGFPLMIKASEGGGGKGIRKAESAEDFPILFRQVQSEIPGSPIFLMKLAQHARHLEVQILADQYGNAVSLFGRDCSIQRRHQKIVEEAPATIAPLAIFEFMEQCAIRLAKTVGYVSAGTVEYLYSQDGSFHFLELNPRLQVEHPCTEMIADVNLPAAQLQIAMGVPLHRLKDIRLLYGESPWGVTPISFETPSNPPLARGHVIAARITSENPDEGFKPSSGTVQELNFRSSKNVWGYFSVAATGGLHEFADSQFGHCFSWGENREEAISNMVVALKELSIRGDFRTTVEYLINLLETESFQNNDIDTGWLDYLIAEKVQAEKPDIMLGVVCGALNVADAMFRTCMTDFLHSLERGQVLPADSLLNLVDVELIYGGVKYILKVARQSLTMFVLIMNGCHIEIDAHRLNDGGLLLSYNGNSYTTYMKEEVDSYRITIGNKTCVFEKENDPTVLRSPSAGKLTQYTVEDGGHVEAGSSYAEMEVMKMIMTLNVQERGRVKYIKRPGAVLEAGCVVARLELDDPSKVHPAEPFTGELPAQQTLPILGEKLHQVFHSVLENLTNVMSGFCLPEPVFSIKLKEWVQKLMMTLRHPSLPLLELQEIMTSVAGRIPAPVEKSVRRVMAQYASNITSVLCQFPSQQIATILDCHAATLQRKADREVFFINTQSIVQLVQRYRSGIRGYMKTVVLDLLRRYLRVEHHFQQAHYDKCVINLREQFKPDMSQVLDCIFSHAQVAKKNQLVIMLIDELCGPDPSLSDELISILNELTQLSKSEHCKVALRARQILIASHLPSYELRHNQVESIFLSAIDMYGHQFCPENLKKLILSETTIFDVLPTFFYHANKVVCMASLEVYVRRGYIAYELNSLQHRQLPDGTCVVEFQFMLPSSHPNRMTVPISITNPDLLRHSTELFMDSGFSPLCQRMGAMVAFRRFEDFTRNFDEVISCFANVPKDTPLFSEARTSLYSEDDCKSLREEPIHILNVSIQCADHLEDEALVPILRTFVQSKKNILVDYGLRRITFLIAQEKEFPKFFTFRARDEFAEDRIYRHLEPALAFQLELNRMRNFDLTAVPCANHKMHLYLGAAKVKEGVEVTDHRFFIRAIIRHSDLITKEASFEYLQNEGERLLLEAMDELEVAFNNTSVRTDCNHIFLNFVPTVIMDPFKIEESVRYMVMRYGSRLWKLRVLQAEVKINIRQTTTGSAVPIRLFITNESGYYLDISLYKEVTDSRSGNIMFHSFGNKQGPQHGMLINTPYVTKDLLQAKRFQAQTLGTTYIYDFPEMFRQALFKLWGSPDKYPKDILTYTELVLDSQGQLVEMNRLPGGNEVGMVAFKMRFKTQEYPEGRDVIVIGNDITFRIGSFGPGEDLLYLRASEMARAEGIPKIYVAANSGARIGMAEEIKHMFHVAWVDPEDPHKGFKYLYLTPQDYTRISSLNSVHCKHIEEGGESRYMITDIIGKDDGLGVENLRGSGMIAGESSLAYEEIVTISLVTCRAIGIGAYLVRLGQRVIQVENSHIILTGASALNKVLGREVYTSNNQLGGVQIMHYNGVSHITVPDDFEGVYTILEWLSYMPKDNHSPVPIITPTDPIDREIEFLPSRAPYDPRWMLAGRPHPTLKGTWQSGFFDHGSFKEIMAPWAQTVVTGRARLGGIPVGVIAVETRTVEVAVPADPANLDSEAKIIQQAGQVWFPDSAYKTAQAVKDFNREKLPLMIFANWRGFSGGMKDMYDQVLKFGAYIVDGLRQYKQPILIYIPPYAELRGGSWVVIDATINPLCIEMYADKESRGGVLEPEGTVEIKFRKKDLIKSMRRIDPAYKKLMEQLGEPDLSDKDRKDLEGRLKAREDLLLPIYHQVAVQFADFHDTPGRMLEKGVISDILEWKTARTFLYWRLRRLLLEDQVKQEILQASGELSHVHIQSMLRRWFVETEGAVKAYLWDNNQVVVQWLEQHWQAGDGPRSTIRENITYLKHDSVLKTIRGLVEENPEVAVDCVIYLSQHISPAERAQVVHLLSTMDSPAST

Row | IC50 [µM] | Compound
1 | 0.524 | CCOC(=O)Nc1ccc(Nc2nc3cc(S(=O)(=O)Nc4ccc(C(=O)OC(C)C)cc4)ccc3[nH]2)cc1 [Example 534, isopropyl 4-(2-(4-(ethoxycarbonylamino)phenylamino)-1H-benzo[d]imidazole-5-sulfonamido)benzoate]
2 | 0.29 | CCN(CC)c1ccc(Nc2nc3cc(S(=O)(=O)Nc4ccc(C(=O)OC(C)C)cc4)ccc3[nH]2)cc1 [Example 537, isopropyl 4-(2-(4-(diethylamino)phenylamino)-1H-benzo[d]imidazole-5-sulfonamido)benzoate]
3 | 0.077 | CC(C)OC(=O)c1ccc(NS(=O)(=O)c2ccc3[nH]c(Nc4cccc([N+](=O)[O-])c4)nc3c2)cc1 [Example 538, isopropyl 4-(2-(3-nitrophenylamino)-1H-benzo[d]imidazole-5-sulfonamido)benzoate]
4 | > 139 | Cc1cccc(C)c1Nc1nc2cc(S(=O)(=O)Nc3ccc(C(=O)OC(C)C)cc3)ccc2[nH]1 [Example 540, isopropyl 4-(2-(2,6-dimethylphenylamino)-1H-benzo[d]imidazole-5-sulfonamido)benzoate]
5 | 0.575 | CC(C)OC(=O)c1ccc(NS(=O)(=O)c2ccc3[nH]c(Nc4ccc(F)c(Cl)c4)nc3c2)cc1 [Example 542, isopropyl 4-(2-(3-chloro-4-fluorophenylamino)-1H-benzo[d]imidazole-5-sulfonamido)benzoate]
6 | 0.035 | CC(C)OC(=O)c1ccc(NS(=O)(=O)c2ccc3[nH]c(Nc4ccc(Cl)c(S(N)(=O)=O)c4)nc3c2)cc1 [Example 544, isopropyl 4-(2-(4-chloro-3-sulfamoylphenylamino)-1H-benzo[d]imidazole-5-sulfonamido)benzoate]
7 | 0.623 | CC(C)OC(=O)c1ccc(NS(=O)(=O)c2ccc3[nH]c(Nc4ccc(-n5cccn5)cc4)nc3c2)cc1 [Example 545, isopropyl 4-(2-(4-(1H-pyrazol-1-yl)phenylamino)-1H-benzo[d]imidazole-5-sulfonamido)benzoate]
8 | 0.845 | CC(C)OC(=O)c1ccc(NS(=O)(=O)c2ccc3[nH]c(Nc4ccccc4F)nc3c2)cc1 [Example 546, isopropyl 4-(2-(2-fluorophenylamino)-1H-benzo[d]imidazole-5-sulfonamido)benzoate]
9 | 0.374 | CC(C)OC(=O)c1ccc(NS(=O)(=O)c2ccc3[nH]c(Nc4cccc(Cl)c4)nc3c2)cc1 [Example 547, isopropyl 4-(2-(3-chlorophenylamino)-1H-benzo[d]imidazole-5-sulfonamido)benzoate]
10 | 0.075 | CC(=O)c1ccc(Nc2nc3cc(S(=O)(=O)Nc4ccc(C(=O)OC(C)C)cc4)ccc3[nH]2)cc1 [Example 548, isopropyl 4-(2-(4-acetylphenylamino)-1H-benzo[d]imidazole-5-sulfonamido)benzoate]
11 | 0.334 | CC(C)OC(=O)c1ccc(NS(=O)(=O)c2ccc3[nH]c(Nc4ccc(C#N)cc4)nc3c2)cc1 [Example 552, isopropyl 4-(2-(4-cyanophenylamino)-1H-benzo[d]imidazole-5-sulfonamido)benzoate]
12 | 0.03 | COc1ccc(Nc2nc3cc(S(=O)(=O)N[C@H]4CC[C@H](C(=O)OC(C)C)CC4)ccc3[nH]2)cc1 [Example 555, (1r,4r)-isopropyl 4-(2-(4-methoxyphenylamino)-1H-benzo[d]imidazole-5-sulfonamido)cyclohexanecarboxylate]
13 | 0.013 | CC(C)OC(=O)[C@H]1CC[C@H](NS(=O)(=O)c2ccc3[nH]c(-c4ccc(N5CCN(C)CC5)cc4)nc3c2)CC1 [Example 557, (1r,4r)-isopropyl 4-(2-(4-(4-methylpiperazin-1-yl)phenyl)-1H-benzo[d]imidazole-5-sulfonamido)cyclohexanecarboxylate]

The remaining lines, values behind:

Row | Compound | IC50 [µM]
14 | CC(C)OC(=O)c1ccc(NS(=O)(=O)c2ccc3[nH]c(Nc4cccc(F)c4)nc3c2)cc1 [Example 535, isopropyl 4-(2-(3-fluorophenylamino)-1H-benzo[d]imidazole-5-sulfonamido)benzoate] | 0.225
15 | Cc1cccc(Nc2nc3cc(S(=O)(=O)Nc4ccc(C(=O)OC(C)C)cc4)ccc3[nH]2)c1 [Example 536, isopropyl 4-(2-(m-tolylamino)-1H-benzo[d]imidazole-5-sulfonamido)benzoate] | 0.412
16 | CC(C)OC(=O)c1ccc(NS(=O)(=O)c2ccc3[nH]c(Nc4ccc(N5CCOCC5)nc4)nc3c2)cc1 [Example 539, isopropyl 4-(2-(6-morpholinopyridin-3-ylamino)-1H-benzo[d]imidazole-5-sulfonamido)benzoate] | 0.221
17 | CC(=O)c1cccc(Nc2nc3cc(S(=O)(=O)Nc4ccc(C(=O)OC(C)C)cc4)ccc3[nH]2)c1 [Example 541, isopropyl 4-(2-(3-acetylphenylamino)-1H-benzo[d]imidazole-5-sulfonamido)benzoate] | 0.086
18 | COc1cc(Nc2nc3cc(S(=O)(=O)Nc4ccc(C(=O)OC(C)C)cc4)ccc3[nH]2)cc(OC)c1OC [Example 543, isopropyl 4-(2-(3,4,5-trimethoxyphenylamino)-1H-benzo[d]imidazole-5-sulfonamido)benzoate] | 0.28
19 | CC(C)OC(=O)c1ccc(NS(=O)(=O)c2ccc3[nH]c(Nc4cccc(-n5ccsc5=O)c4)nc3c2)cc1 [Example 549, isopropyl 4-(2-(3-(2-oxothiazol-3(2H)-yl)phenylamino)-1H-benzo[d]imidazole-5-sulfonamido)benzoate] | 0.737
20 | CC(C)OC(=O)c1ccc(NS(=O)(=O)c2ccc3[nH]c(Nc4ccc([N+](=O)[O-])cc4)nc3c2)cc1 [Example 550, isopropyl 4-(2-(4-nitrophenylamino)-1H-benzo[d]imidazole-5-sulfonamido)benzoate] | 0.24
21 | CC(C)OC(=O)c1ccc(NS(=O)(=O)c2ccc3[nH]c(Nc4ccc(N(C)C)cc4)nc3c2)cc1 [Example 551, isopropyl 4-(2-(4-(dimethylamino)phenylamino)-1H-benzo[d]imidazole-5-sulfonamido)benzoate] | 0.282
22 | CC(C)OC(=O)c1ccc(NS(=O)(=O)c2ccc3[nH]c(Nc4cccc(C(C)O)c4)nc3c2)cc1 (centres unmarked) [Example 553, isopropyl 4-(2-(3-(1-hydroxyethyl)phenylamino)-1H-benzo[d]imidazole-5-sulfonamido)benzoate] | 0.119
23 | CC(C)OC(=O)[C@H]1CC[C@H](NS(=O)(=O)c2ccc3[nH]c(Nc4ccccc4)nc3c2)CC1 [Example 554, (1r,4r)-isopropyl 4-(2-(phenylamino)-1H-benzo[d]imidazole-5-sulfonamido)cyclohexanecarboxylate] | 0.028
24 | CC(C)OC(=O)[C@H]1CC[C@H](NS(=O)(=O)c2ccc3[nH]c(-c4ccc(C(C)O)cc4)nc3c2)CC1 (some centres unmarked) [Example 556, (1r,4r)-isopropyl 4-(2-(4-(1-hydroxyethyl)phenyl)-1H-benzo[d]imidazole-5-sulfonamido)cyclohexanecarboxylate] | 0.025
25 | CC(C)OC(=O)c1ccc(NS(=O)(=O)c2ccc3[nH]c(-c4ccc(CN(C)C)cc4)nc3c2)cc1 [Example 558, isopropyl 4-(2-(4-((dimethylamino)methyl)phenyl)-1H-benzo[d]imidazole-5-sulfonamido)benzoate] | 0.337
26 | CNCc1ccc(-c2nc3cc(S(=O)(=O)Nc4ccc(C(=O)OC(C)C)cc4)ccc3[nH]2)cc1 [Example 559, isopropyl 4-(2-(4-((methylamino)methyl)phenyl)-1H-benzo[d]imidazole-5-sulfonamido)benzoate] | 0.163
